The values below come from ChEMBL document CHEMBL5726331, “Pyridinone and pyrimidinone derivatives as factor Xia” (2017).

In the assay the target is Coagulation factor XI (Homo sapiens, UniProt P03951). Nature of the assay: Enzyme Activity Assay: Human Factor XIa (Haematologic Technologies Inc.) activity was measured at an enzyme concentration of 0.1 U/mL in 150 mM NaCl, 5 mM KCl, 1 mg/mL PEG6000, 50 mM HEPES-NaOH (pH7.4) with 300 μM S-2366 (pyroGlu-Pro-Arg-pNA, Chromogenix).

Each structure is given as a SMILES string.

Coagulation factor XI, sequence (P03951 19-387 limits assumed): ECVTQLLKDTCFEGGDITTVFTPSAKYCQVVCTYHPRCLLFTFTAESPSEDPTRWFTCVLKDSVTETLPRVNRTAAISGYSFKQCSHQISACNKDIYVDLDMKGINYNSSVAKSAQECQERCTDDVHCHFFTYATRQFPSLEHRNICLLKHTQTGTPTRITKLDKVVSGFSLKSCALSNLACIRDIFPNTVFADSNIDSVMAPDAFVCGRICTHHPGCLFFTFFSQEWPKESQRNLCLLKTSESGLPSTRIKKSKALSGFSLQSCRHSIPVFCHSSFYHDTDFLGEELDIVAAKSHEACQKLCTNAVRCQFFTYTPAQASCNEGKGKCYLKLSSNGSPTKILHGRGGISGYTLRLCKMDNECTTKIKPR
Coagulation factor XI, sequence (P03951 388-625 limits assumed): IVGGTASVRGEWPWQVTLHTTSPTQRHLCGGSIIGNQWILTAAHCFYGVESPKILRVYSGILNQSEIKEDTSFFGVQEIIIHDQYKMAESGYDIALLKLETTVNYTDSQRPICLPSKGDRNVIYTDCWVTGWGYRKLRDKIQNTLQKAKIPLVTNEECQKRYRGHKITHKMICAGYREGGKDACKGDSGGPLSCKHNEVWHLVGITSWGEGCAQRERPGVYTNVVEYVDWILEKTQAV

Usually IC50 stands for the midpoint of a concentration-inhibition curve. A lower IC50 goes with greater potency. `COC(=O)Nc1ccc(-c2[nH]c([C@H](C)NC(=O)/C=C/c3cc(Cl)ccc3-n3cnnn3)nc2Cl)cc1` gave an IC50 of 40 nM.

Regarding `COC(=O)Nc1ccc(-c2[nH]c(CNC(=O)/C=C/c3cc(Cl)ccc3-n3cnnn3)nc2Cl)cc1`, the IC50 stood at 130 nM.
